In ChEMBL document CHEMBL1201862, “PubChem BioAssay data set” (2004):
The source made the active and inactive calls.

Assays:
[1] = biological target: SUMO-activating enzyme (Homo sapiens, UniProt Q9UBT2); assay: inhibitors of in vitro SUMOylation cascade, primary screen, biochemical, HTRF, uHTS (AID 2006); format: protein-complex assay
[2] = biological target: T1, Zinc finger protein mex-5 (Caenorhabditis elegans, UniProt Q9XUB2); assay: MEX-5/TCR-2 RNA interaction inhibitors, dose response, biochemical, C. elegans, fluorescence polarization (AID 1960)
T1 sequence (Q9XUB2 whole entry): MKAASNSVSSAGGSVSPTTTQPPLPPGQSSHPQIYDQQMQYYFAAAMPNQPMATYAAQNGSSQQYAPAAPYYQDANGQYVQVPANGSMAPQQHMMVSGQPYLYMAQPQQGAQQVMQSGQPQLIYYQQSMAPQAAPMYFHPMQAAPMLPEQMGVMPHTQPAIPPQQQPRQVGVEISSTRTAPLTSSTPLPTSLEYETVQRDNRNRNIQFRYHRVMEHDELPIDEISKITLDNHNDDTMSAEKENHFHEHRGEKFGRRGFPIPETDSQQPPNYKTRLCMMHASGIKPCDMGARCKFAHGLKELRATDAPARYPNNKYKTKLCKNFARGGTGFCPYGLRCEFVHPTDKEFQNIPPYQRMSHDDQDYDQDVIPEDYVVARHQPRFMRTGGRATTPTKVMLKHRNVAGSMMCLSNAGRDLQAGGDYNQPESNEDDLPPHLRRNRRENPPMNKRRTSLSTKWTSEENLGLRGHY

[3] = biological target: T2, Sentrin-specific protease 6 (Homo sapiens, UniProt Q9GZR1); assay: SAR Analysis of small molecule inhibitors of Sentrin-specific protease 6 (SENP6) using a Luminescent assay. [Related pubchem assays (depositor defined):AID2582, AID2599]; format: functional
T2 sequence (Q9GZR1 whole entry): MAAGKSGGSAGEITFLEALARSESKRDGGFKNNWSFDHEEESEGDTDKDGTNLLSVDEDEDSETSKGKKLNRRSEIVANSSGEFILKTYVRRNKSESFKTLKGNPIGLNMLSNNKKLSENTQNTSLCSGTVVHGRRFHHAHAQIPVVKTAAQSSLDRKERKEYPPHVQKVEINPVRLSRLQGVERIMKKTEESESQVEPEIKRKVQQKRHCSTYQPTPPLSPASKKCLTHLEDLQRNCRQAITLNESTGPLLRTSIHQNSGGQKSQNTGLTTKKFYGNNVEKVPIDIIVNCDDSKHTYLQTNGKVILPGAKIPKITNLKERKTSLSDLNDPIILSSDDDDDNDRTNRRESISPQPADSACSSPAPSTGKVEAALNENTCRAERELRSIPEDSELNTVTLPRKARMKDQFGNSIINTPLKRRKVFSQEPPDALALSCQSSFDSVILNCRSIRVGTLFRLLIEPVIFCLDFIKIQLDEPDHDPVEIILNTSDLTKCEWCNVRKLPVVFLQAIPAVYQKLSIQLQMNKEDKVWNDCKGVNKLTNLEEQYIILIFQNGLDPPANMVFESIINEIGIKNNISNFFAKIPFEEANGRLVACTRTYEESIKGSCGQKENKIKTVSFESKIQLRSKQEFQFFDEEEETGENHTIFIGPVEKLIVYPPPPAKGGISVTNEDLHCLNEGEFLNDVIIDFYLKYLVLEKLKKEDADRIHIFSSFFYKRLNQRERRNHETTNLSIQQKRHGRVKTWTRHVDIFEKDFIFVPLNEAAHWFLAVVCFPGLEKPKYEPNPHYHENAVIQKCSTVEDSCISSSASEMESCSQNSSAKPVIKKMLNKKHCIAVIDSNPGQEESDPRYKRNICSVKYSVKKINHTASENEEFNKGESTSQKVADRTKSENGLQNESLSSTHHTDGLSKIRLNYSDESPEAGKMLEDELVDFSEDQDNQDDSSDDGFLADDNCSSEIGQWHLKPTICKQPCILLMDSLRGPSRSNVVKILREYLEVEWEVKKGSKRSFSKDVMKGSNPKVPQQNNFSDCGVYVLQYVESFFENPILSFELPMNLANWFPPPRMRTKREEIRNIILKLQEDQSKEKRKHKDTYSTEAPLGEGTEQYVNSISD

[4] = biological target: Matrix metalloproteinase-14 (Homo sapiens, UniProt P50281); assay: Dose Response confirmation of uHTS hits for a small molecule inhibitors of MT1-MMP activation in a fluorescence assay set 2.; format: functional
[5] = biological target: Calcium/calmodulin-dependent protein kinase type II subunit gamma (Homo sapiens, UniProt Q13555); format: functional
Chain of Calcium/calmodulin-dependent protein kinase type II subunit gamma (Q13555 whole entry): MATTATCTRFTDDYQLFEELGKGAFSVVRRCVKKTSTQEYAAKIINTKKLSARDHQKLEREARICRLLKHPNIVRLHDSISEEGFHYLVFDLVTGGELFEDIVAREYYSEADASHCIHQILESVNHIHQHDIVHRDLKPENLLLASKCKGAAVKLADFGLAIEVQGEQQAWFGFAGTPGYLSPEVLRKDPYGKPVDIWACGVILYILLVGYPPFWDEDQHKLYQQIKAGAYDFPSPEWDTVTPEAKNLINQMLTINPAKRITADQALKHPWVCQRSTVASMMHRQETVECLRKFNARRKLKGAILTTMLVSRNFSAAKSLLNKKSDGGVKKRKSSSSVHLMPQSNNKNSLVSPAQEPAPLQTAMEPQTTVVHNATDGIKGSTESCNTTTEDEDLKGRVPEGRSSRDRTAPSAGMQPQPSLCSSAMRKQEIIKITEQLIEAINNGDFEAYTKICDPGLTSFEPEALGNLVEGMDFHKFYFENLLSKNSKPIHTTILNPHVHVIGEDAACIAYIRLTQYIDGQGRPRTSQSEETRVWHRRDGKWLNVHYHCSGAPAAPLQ

[6] = biological target: Serine/threonine-protein kinase 17A (Homo sapiens, UniProt Q9UEE5); format: functional
[7] = biological target: Mitogen-activated protein kinase 8 (Homo sapiens, UniProt P45983); format: functional;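 further: value comes from one member of a kinome-wide kinase profiling panel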
[8] = biological target: MAP kinase-activated protein kinase 2 (Homo sapiens, UniProt P49137); format: functional;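 further: measured as one member of a kinome-wide kinase panel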
[9] = biological target: Tyrosine-protein kinase JAK3 (Homo sapiens, UniProt P52333); format: functional
[10] = biological target: Casein kinase I isoform gamma-1 (Homo sapiens, UniProt Q9HCP0); format: functional;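 further: measured as the CSNK1G1 member of a kinome profiling panel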
[11] = biological target: Ribosomal protein S6 kinase alpha-5 (Homo sapiens, UniProt O75582); format: functional
[12] = biological target: Tyrosine-protein kinase Lyn (Homo sapiens, UniProt P07948); format: functional;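 further: lyn as one member of a kinase panel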
Chain of Tyrosine-protein kinase Lyn (P07948 whole entry): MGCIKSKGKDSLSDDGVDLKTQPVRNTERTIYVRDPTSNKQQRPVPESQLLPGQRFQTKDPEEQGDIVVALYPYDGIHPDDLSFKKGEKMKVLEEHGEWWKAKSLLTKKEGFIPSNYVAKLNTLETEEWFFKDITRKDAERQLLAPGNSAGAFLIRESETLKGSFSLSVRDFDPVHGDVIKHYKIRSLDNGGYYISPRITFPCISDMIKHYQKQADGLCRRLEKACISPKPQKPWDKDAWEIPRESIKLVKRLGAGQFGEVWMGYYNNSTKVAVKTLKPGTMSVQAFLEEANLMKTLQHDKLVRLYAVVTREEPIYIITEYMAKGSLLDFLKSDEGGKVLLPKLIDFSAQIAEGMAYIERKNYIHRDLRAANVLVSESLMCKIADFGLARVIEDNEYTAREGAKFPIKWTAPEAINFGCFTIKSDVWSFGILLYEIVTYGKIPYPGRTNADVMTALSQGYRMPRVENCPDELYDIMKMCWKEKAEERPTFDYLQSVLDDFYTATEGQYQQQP

[13] = biological target: Tyrosine-protein kinase ITK/TSK (Homo sapiens, UniProt Q08881); format: functional;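 further: affinity for ITK measured as one member of a broad kinase panel profiling binding across the kinome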
[14] = biological target: Serine/threonine-protein kinase TAO1 (Homo sapiens, UniProt Q7L7X3); format: functional
Chain of Serine/threonine-protein kinase TAO1 (Q7L7X3 whole entry): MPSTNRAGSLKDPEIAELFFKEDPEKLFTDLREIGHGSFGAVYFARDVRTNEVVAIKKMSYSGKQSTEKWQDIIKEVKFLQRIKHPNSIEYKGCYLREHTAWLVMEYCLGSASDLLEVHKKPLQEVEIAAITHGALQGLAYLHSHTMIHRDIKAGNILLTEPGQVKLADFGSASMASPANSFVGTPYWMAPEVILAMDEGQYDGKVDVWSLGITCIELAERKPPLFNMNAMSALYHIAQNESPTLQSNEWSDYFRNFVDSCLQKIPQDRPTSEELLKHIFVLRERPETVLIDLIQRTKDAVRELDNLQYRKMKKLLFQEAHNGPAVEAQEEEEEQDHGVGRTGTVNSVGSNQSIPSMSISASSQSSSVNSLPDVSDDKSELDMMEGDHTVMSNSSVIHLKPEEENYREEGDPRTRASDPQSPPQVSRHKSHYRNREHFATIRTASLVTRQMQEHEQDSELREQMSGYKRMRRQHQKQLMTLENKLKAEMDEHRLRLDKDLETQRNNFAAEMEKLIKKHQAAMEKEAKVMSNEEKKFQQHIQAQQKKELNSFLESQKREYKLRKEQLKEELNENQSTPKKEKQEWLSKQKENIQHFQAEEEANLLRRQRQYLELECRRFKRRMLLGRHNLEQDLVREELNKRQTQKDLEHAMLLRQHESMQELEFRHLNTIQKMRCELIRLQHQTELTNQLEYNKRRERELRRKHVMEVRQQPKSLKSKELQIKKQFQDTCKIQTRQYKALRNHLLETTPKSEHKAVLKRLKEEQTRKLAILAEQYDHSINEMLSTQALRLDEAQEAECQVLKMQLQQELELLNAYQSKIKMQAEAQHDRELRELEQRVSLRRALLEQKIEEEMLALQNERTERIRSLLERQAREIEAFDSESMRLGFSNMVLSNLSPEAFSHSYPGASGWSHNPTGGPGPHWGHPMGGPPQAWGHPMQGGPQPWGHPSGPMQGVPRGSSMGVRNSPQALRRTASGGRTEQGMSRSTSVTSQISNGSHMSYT

[15] = biological target: MAP/microtubule affinity-regulating kinase 3 (Homo sapiens, UniProt P27448); format: functional;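 further: MARK3 affinity measured as one member of a kinome panel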
Chain of MAP/microtubule affinity-regulating kinase 3 (P27448 whole entry): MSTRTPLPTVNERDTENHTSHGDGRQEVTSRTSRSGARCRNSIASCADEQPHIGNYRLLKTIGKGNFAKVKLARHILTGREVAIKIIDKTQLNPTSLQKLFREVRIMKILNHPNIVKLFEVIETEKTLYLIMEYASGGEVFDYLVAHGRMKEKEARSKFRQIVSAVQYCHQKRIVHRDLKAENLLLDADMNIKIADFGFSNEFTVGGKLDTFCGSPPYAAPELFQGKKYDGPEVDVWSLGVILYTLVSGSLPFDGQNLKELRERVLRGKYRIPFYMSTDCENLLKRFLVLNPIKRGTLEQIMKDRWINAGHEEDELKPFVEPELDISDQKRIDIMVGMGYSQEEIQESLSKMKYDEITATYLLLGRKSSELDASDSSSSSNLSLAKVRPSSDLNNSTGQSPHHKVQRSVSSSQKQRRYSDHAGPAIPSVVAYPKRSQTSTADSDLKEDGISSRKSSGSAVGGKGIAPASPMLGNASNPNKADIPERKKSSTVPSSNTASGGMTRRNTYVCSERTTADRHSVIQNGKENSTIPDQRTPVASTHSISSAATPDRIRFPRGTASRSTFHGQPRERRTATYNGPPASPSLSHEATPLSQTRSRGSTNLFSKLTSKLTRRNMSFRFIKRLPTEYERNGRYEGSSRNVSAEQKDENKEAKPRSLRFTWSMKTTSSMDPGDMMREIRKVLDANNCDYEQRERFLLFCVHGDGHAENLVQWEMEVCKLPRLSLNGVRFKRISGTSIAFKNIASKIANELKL

[16] = biological target: Protein-tyrosine kinase 2-beta (Homo sapiens, UniProt Q14289); format: functional
[17] = biological target: Protein kinase C gamma type (Homo sapiens, UniProt P05129); format: functional
[18] = biological target: Glycogen synthase kinase-3 alpha (Homo sapiens, UniProt P49840); format: functional;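 further: GSK3A result taken from a broad kinome-wide kinase panel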
[19] = biological target: Mitogen-activated protein kinase kinase kinase kinase 5 (Homo sapiens, UniProt Q9Y4K4); format: functional;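 further: measured as one member of a kinome-spanning kinase panel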
[20] = biological target: Glycogen synthase kinase-3 beta (Homo sapiens, UniProt P49841); format: functional;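 further: value comes from a broad kinome profiling panel, with GSK3B as the panel member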
Chain of Glycogen synthase kinase-3 beta (P49841 whole entry): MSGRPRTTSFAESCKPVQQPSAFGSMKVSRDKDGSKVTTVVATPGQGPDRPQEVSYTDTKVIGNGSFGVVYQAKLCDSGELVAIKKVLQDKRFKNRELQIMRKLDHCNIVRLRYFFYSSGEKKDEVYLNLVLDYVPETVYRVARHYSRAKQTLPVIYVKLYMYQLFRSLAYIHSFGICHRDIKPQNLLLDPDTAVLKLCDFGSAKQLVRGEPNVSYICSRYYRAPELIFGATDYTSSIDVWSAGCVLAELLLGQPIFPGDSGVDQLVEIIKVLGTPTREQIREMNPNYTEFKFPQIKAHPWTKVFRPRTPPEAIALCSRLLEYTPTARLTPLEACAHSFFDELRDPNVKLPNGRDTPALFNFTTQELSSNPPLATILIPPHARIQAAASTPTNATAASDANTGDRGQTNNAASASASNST

[21] = biological target: Cyclin-dependent kinase 9 (Homo sapiens, UniProt P50750); format: functional;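 further: value from the CDK9 entry of a kinome-spanning kinase panel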
Chain of Cyclin-dependent kinase 9 (P50750 whole entry): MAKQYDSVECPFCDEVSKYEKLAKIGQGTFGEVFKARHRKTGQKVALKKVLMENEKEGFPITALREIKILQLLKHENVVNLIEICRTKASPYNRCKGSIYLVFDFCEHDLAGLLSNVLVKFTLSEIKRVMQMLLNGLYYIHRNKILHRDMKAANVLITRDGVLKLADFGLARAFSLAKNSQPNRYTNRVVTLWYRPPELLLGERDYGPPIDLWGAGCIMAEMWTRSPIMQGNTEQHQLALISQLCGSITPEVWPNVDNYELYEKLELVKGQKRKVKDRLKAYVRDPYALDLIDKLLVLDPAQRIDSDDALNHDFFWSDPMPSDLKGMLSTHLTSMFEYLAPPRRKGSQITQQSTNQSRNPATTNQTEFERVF

[22] = biological target: Lymphokine-activated killer T-cell-originated protein kinase (Homo sapiens, UniProt Q96KB5); format: functional;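 further: value comes from a kinase panel screen in which TOPK was one of the panel members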
Chain of Lymphokine-activated killer T-cell-originated protein kinase (Q96KB5 whole entry): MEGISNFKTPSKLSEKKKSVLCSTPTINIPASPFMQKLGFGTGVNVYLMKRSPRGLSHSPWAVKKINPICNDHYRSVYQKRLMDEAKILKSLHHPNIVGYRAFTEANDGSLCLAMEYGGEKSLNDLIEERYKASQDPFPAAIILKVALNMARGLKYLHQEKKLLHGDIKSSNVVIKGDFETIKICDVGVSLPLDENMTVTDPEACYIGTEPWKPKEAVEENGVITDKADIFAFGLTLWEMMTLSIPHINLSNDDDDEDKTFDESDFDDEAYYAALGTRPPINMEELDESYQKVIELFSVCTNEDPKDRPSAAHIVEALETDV

CC(=O)NC1C(=O)N(CCN2CCOCC2)c2ccc(F)cc21 (centres undefined)
IC50 [1]: 12300 nM (active)

O=C(O)C1Nc2c(O)cc(Cl)c([N+](=O)[O-])c2C2C=CCC12 (centres undefined)
EC50 [2]: 19100 nM (inconclusive)

O=C(CCc1ccccc1)NNc1cc(N2CCCCC2)nc(N2CCCCC2)n1
IC50 [3]: 35700 nM (active)

Oc1ccc(N=Nc2c(O)ccc3ccccc23)cc1
IC50 [4]: 22800 nM (inactive)

Cc1n[nH]c2ccc(-c3cncc(OCC(N)Cc4cccc(Cl)c4)c3)cc12 (centres undefined)
Ki [5]: 3.98 nM (active) | pKi [5]: 8.4 | Ki [6]: 501 nM (active) | Ki [7]: 2510 nM (active) | Ki [8]: 631 nM (active) | Ki [9]: 794 nM (active) | Ki [10]: 79.4 nM (active) | Ki [11]: 5.01 nM (active) | Ki [12]: > 1580 nM (inactive) | Ki [13]: > 1580 nM (inactive) | Ki [14]: 316 nM (active) | Ki [15]: 251 nM (active) | Ki [16]: 501 nM (active) | Ki [17]: 6.31 nM (active) | Ki [18]: 50.1 nM (active) | Ki [19]: 251 nM (active) | Ki [20]: 15.8 nM (active) | Ki [21]: 63.1 nM (active) | pKi [21]: 7.2 | Ki [22]: 2510 nM (active)
